This experiment concerns the target T1, KCNQ2/3 channels (Homo sapiens, UniProt O43525+O43526).
T1 construct: expressed in transfected cells
Description: Fluorescence assay using a voltage sensitive dye (fluorimetry). The class given is cell-based. The conditions noted are these: CHO-K1 cells expressing KCNQ2/3 channels; for EC50: agonistic activity; for Emax: retigabine 50 μM = 100%, read-out: Fluorimetry % efficacy (retigabine 50 μM = 100%). As to the method:
Pharmacological Experiments Fluorescence Assay Using a Voltage Sensitive Dye
Human CHO-K1 cells expressing KCNQ2/3 channels are cultivated adherently at 37° C., 5% CO2 and 95% humidity in cell culture bottles (e.g. 80 cm^2 TC flasks, Nunc) with DMEM-high glucose (Sigma Aldrich, D7777) including 10% FCS (PAN Biotech, e.g. 3302-P270521) or alternatively MEM Alpha Medium (1×, liquid, Invitrogen, #22571), 10% fetal calf serum (FCS) (Invitrogen, #10270-106, heat-inactivated) and the necessary selection antibiotics.
Before being sown out for the measurements, the cells are washed with a 1×DPBS buffer without Ca^2+/Mg^2+ (e.g. Invitrogen, #14190-094) and detached from the bottom of the culture vessel by means of Accutase (PAA Laboratories, #L11-007) (incubation with Accutase for 15 min at 37° C.). The cell count then present is determined using a CASY™ cell counter (TCC model, Schärfe System) in order subsequently to apply, depending on the density optimization for the individual cell line, 20,000-30,000 cells/well/100 μl of the described nutrient medium to 96-well measuring plates of the Corning™ CellBIND™ type (Flat Clear Bottom Black Polystyrene Microplates, #3340). Incubation is then carried out for one hour at room temperature, without gassing or adjusting the humidity, followed by incubation for 24 hours at 37° C., 5% CO2 and 95% humidity.
The voltage-sensitive fluorescent dye from the Membrane Potential Assay Kit (Red™ Bulk format part R8123 for FLIPR, MDS Analytical Technologies™) is prepared by dissolving the contents of a vessel Membrane Potential Assay Kit Red Component A in 200 ml of extracellular buffer (ES buffer, 120 mM NaCl, 1 mM KCl, 10 mM HEPES, 2 mM CaCl2, 2 mM MgCl2, 10 mM glucose; pH 7.4). After removal of the nutrient medium, the cells are washed with 200 μl of ES buffer, then covered with a layer of 100 μl of the dye solution prepared above and incubated for 45 min at room temperature with the exclusion of light.
The fluorescence measurements are carried out with a BMG Labtech FLUOstar™ BMG Labtech NOVOstar™ or BMG Labtech POLARstar™ instrument (525 nm excitation, 560 nm emission, Bottom Read mode). After incubation of the dye, 50 μl of the test substances in the desired concentrations, or 50 μl of ES buffer for control purposes, are introduced into separate cavities of the measuring plate and incubated for 30 min at room temperature while being shielded from light. The fluorescence intensity of the dye is then measured for 5 min and the fluorescence value F1 of each well is thus determined at a given, constant time. 15 μl of a […] KCl solution ([…]) are then added to each well. The change in fluorescence is subsequently measured until all the relevant measured values have been obtained (mainly 5-30 min). At a given time after KCl application, a fluorescence value F2 is determined, in this case at the time of the fluorescence peak.
For calculation, the fluorescence intensity F2 is compared with the fluorescence intensity F1, and the agonistic activity of the target compound on the potassium channel is determined therefrom. F2 and F1 are calculated as follows: […]
In order to determine whether a substance has agonistic activity,
A substance has an agonistic activity on the potassium channel when
[formula] it is possible to conclude that a target compound has agonistic activity if an increase in
[formula] is to be observed as the dosage of the target compound increases.
Calculations of EC50 values are carried out with the aid of ‘Prism v4.0’ software (GraphPad Software™).

Drawing on patent publication US8586755B2, “Substituted nicotinamides as KCNQ2/3 modulators” (Grünenthal GmbH, priority 2009, dated 2013), this text covers EC50 and Emax for twelve compounds.

Each structure is given as a SMILES string.

As for `O=C(NCc1ccccc1F)c1cccnc1SCCCc1ccc(F)cc1` [compound 63, N-[(2-Fluorophenyl)-methyl]-2-[3-(4-fluorophenyl)-propylsulfanyl]-pyridine-3-carboxylic acid amide], the midpoint of the response, the EC50, lay at 34 nM and the Emax came to 72%.
For `O=C(NCc1cccc(F)c1)c1cccnc1SCCCc1ccc(F)cc1` [compound 64, N-[(3-Fluorophenyl)-methyl]-2-[3-(4-fluorophenyl)-propylsulfanyl]-pyridine-3-carboxylic acid amide], in that order: 49 nM and 100%.
With `O=C(NCc1ccccc1)c1cccnc1SCCCc1ccc(F)cc1` [compound 66, N-Benzyl-2-[3-(4-fluorophenyl)-propylsulfanyl]-pyridine-3-carboxylic acid amide], the EC50 was found to be 50 nM and the Emax is 121%.
On the same counts, the results for `CC(CCc1ccccc1)Sc1ncccc1C(=O)NCC1CC2CCC1C2` (centres unmarked) [compound 67, N-(5-Bicyclo[2.2.1]heptanyl-methyl)-2-[(1-methyl-3-phenyl-propyl)sulfanyl]-pyridine-3-carboxylic acid amide] are 113 nM and 290%.
For `O=C(NCC1CC2CCC1C2)c1cccnc1SCCCc1cc(F)cc(C(F)(F)F)c1` (centres unmarked) [compound 69, N-(5-Bicyclo[2.2.1]heptanyl-methyl)-2-[3-[3-fluoro-5-(trifluoromethyl)-phenyl]-propylsulfanyl]-pyridine-3-carboxylic acid amide], in that order: 140 nM and 259%.
For `COc1cccc(CCCSc2ncccc2C(=O)NCC2CC3CCC2C3)c1` (centres unmarked) [compound 70, N-(5-Bicyclo[2.2.1]heptanyl-methyl)-2-[3-(3-methoxyphenyl)-propylsulfanyl]-pyridine-3-carboxylic acid amide], in that order: 244 nM and 308%.
As to `O=C(NCc1ccc(F)c(F)c1)c1cccnc1SCCCc1ccc(F)cc1` [compound 71, N-[(3,4-Difluoro-phenyl)-methyl]-2-[3-(4-fluorophenyl)-propylsulfanyl]-pyridine-3-carboxylic acid amide], the EC50 was 72 nM and the Emax was 107%.
For `O=C(NCc1ccc2c(c1)CCO2)c1cccnc1SCCCc1ccc(F)cc1` [compound 72, N-(2,3-Dihydro-benzofuran-5-yl-methyl)-2-[3-(4-fluorophenyl)-propylsulfanyl]-pyridine-3-carboxylic acid amide], the EC50 came to 85 nM and the Emax amounted to 85%.
Take `O=C(NCC1CC2CCC1C2)c1cccnc1SCCCc1cccc(O)c1` (centres unmarked) [compound 73, N-(5-Bicyclo[2.2.1]heptanyl-methyl)-2-[3-(3-hydroxyphenyl)-propylsulfanyl]-pyridine-3-carboxylic acid amide]: the concentration for a half-maximal effect (EC50) stood at 377 nM and the Emax turned out to be 268%.
On to `CC(CCc1ccc(F)cc1)Sc1ncccc1C(=O)NCC1CC2CCC1C2` (centres unmarked) [compound 74, N-(5-Bicyclo[2.2.1]heptanyl-methyl)-2-[[3-(4-fluorophenyl)-1-methyl-propyl]sulfanyl]-pyridine-3-carboxylic acid amide], for which the response was half-maximal at 62 nM (EC50) and the Emax was determined as 260%.
`CC(CSc1ncccc1C(=O)NCC1CC2CCC1C2)Cc1ccc(F)cc1` (centres unmarked) [compound 75, N-(5-Bicyclo[2.2.1]heptanyl-methyl)-2-[[3-(4-fluorophenyl)-2-methyl-propyl]sulfanyl]-pyridine-3-carboxylic acid amide]: the EC50 was determined as 37 nM and the Emax came to 261%.
On to `COc1ccccc1CNC(=O)c1cccnc1SCCCc1ccc(F)cc1` [compound 76, 2-[3-(4-Fluorophenyl)-propylsulfanyl]-N-[(2-methoxyphenyl)-methyl]-pyridine-3-carboxylic acid amide], for which the Emax worked out at 33%.
